Assays:
[1] = biological target: T1, TA12105 (T. annulata cytoplasmic HSP90) (Theileria annulata, UniProt Q4UDU8); test: biochemical
[2] = biological target: T1, TA12105 (T. annulata cytoplasmic HSP90); test: intrinsic tryptophan fluorescence quenching (ATPase Km […]); type: binding

T1 sequence (Q4UDU8 whole entry): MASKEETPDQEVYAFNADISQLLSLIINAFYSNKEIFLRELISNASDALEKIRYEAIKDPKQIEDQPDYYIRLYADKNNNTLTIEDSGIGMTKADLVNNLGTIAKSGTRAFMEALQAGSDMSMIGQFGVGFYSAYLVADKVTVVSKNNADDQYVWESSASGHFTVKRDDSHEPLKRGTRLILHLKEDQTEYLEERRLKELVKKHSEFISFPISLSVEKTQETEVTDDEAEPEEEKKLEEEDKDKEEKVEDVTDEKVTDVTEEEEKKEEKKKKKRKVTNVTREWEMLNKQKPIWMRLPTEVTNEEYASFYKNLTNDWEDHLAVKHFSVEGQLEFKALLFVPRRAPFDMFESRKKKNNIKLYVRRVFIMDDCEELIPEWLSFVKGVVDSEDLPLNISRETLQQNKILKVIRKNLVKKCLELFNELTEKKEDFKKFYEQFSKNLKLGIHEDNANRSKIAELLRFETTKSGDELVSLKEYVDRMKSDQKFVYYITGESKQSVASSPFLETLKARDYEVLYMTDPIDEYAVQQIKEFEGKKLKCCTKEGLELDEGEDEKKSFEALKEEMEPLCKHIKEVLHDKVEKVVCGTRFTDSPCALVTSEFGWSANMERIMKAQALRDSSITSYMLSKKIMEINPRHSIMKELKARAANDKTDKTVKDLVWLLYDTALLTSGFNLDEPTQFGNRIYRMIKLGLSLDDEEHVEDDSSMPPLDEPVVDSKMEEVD

In the case of `C=CCNC1=C2C[C@@H](C)C[C@H](OC)[C@H](O)[C@@H](C)/C=C(\C)[C@H](OC(N)=O)[C@@H](OC)/C=C\C=C(/C)C(=O)NC(=CC1=O)C2=O` [17-AAG], the Kd [1] is reported as 7.67 µM.

`Nc1ncnc2c1ncn2[C@@H]1O[C@H](COP(=O)(O)OP(=O)(O)OP(=O)(O)O)[C@@H](O)[C@H]1O` [ATP] showed a Kd [2] of 179 µM.
